Assay results published in patent publication US20260335279A1, “METHODS OF TREATING ISCHEMIA-REPERFUSION INJURIES” (University of Cincinnati, priority 2022, published 2026).

How the values were obtained:
Format in all cases: in vivo, mouse (C57BL/6)
[1] = tested on: myocardial ischemia-reperfusion injury in mice; experiment: Infarct size evaluation upon Evans Blue/TTC staining after myocardial I/R; settings: ML264 25 mg/kg/12 h intraperitoneal; 30 min ischemia, 24 h reperfusion; vs vehicle
Experimental: The myocardial ischemia/reperfusion surgical protocol was applied as follows. Mice were anesthetized with 2% isoflurane inhalation until anesthesia was achieved. The animals' body temperature was maintained at 37 °C throughout the surgical procedure using a heating pad. A tracheal tube was placed via tracheal intubation and the respiration rate was set at 150 strokes/min with a tidal volume of 200 μL, using Minivent ventilator for mice (Model 845, Harvard Apparatus). A 1.2 cm incision was made over the left chest. After retraction of the pectoral major and minor muscles, the fourth intercostal space was exposed. […] The left anterior descending coronary artery (LAD) was then located, sutured, and ligated at a site 3-4 mm distal to the origin of the artery under the left atrium using a 6-0 silk suture. The heart was allowed to stabilize for 15 min and right after, ischemia was induced by tightening the suture against a small piece of polyethylene tube. At the end of the 30-minute ischemia period, the ligature was released for the induction of reperfusion, and then the manual evacuation of air and closure of muscle and skin were performed. The mouse was then monitored during the recovery period, which was generally completed within 3 to 5 minutes. Sustain-released buprenorphine (BupSR, 0.5 mg/kg body weight) was provided by subcutaneous injection. Mice were then left to recover until the end of the reperfusion (2 hours, 12 hours, 24 hours, or 4 weeks). The sham group underwent the same surgical procedure except that the LAD was not occluded.
Double staining of the heart with Evans Blue dye and Triphenyl-Tetrazolium Chloride (TTC) solution was employed for infarct size measurements. Mice were anesthetized upon 3% isoflurane inhalation. The thorax was cut and opened, and hearts were gently excised. Then, the aorta was cannulated and perfused with 5 mL of normal saline. The suture was re-tightened and Evans Blue solution (2.5% in WFI) was slowly infused through the aorta, to differentiate the ischemic part of the myocardium from the non-occluded, normally perfused area. The hearts were sliced into 1-2 mm sections immediately following. The heart slices were incubated with TTC solution (1% in PBS, pH=7.4) at 37 °C for 20 min. In this way, the necrotic area is delimited as a white area, while the viable tissue is stained red. […] The overall size of each slice (All/A), the area-at-risk (R), and the infarct area (I) were determined in a blinded manner for each slice using ImageJ software, and the percentages of Area at Risk (R/A) % and I/R % were calculated. […]
Administration of these two compounds was performed 5 minutes before the reopening of the coronary artery and infarct size was assessed upon 30 minutes of ischemia followed by 24 hours of reperfusion therapy.

[2] = tested on: BCL-XL; experiment: BCL-XL anti-apoptotic protein in myocardium after I/R (Western blot); settings: ML264-treated group; 30 min ischemia, 2 h reperfusion
Experimental: (§1) The myocardial ischemia/reperfusion surgical protocol was applied as follows. Mice were anesthetized with 2% isoflurane inhalation until anesthesia was achieved. The animals' body temperature was maintained at 37 °C throughout the surgical procedure using a heating pad. A tracheal tube was placed via tracheal intubation and the respiration rate was set at 150 strokes/min with a tidal volume of 200 μL, using Minivent ventilator for mice (Model 845, Harvard Apparatus). A 1.2 cm incision was made over the left chest. After retraction of the pectoral major and minor muscles, the fourth intercostal space was exposed. […] The left anterior descending coronary artery (LAD) was then located, sutured, and ligated at a site 3-4 mm distal to the origin of the artery under the left atrium using a 6-0 silk suture. […] The mouse was then monitored during the recovery period, which was generally completed within 3 to 5 minutes. […]
(§2) Isolated myocardial tissue/isolated primary murine cardiomyocytes were homogenized in radioimmunoprecipitation assay buffer (RIPA buffer) containing protease and phosphatase inhibitors (Thermo Fischer Scientific, Cat. No.: A32959). […] Relative densitometry was determined, and the β-actin protein was used as a loading control.
(§3) In order to unravel the mechanisms of KLF5-mediated cardiotoxicity, oxidative stress levels were evaluated at early reperfusion. […]

[3] = tested on: BAX; experiment: BAX apoptotic protein in myocardium after I/R (Western blot); settings: ML264-treated group; 30 min ischemia, 2 h reperfusion
Experimental: as §1, §2, §3

[4] = tested on: Col3a1; experiment: Col3a1 mRNA in chronic model of I/R injury (real-time PCR); settings: 4 weeks post-I/R; vs IR group treated with vehicle
Experimental: The myocardial ischemia/reperfusion surgical protocol was applied as follows. Mice were anesthetized with 2% isoflurane inhalation until anesthesia was achieved. The animals' body temperature was maintained at 37 °C throughout the surgical procedure using a heating pad. A tracheal tube was placed via tracheal intubation and the respiration rate was set at 150 strokes/min with a tidal volume of 200 μL, using Minivent ventilator for mice (Model 845, Harvard Apparatus). A 1.2 cm incision was made over the left chest. After retraction of the pectoral major and minor muscles, the fourth intercostal space was exposed. […] The mouse was then monitored during the recovery period, which was generally completed within 3 to 5 minutes. […]
Total RNA was purified from heart tissue using the TRIzol reagent according to the instructions of the manufacturer (ThermoFischer Scientific, Cat. No.: 15596018). cDNA synthesis was performed using the Applied Biosystems High Capacity cDNA Reverse Transcription Kit (ThermoFischer Scientific, Cat. No.: 4368814) from 500 ng RNA, which had been treated with DNAase I (ThermoFischer Scientific, Cat. No.: 18068015). Quantitative real-time PCR was performed with the SYBR Select Master Mix (ThermoFischer Scientific, Cat. No.: 4472903) using the manufacturer's recommendations. […]

SMILES: CN(C(=O)CNC(=O)/C=C/c1cccc(Cl)c1)C1CCS(=O)(=O)CC1 [ML264]
- infarct size [1]: significant reduction
- BCL-XL anti-apoptotic proteins [2]: upregulation
- BAX apoptotic proteins [3]: suppression
- mRNA levels of Col3a1 [4]: decreased
